Data set [1] has as its target cardiac L-type Ca2+ channel (hCav1.2) (Homo sapiens, UniProt Q13936). The data set can be described thus: L-type Ca2+ channel assay - ChanTest (PatchXpress, CHO cells). The format is cell-based. The source says: Selected compounds were screened for block of the cardiac L-type Ca^2+ channel (hCav1.2, encoded by the human CACNA1C gene and coexpressed with the beta 2 subunit, encoded by the human CACNB2 gene and alpha2delta1, encoded by the CACNA2D1 gene). The Ca^2+ channel is heterologously expressed in a CHO (Chinese Hamster Ovary) cell line. Cells are maintained following standard tissue culture procedures and stable channel expression is maintained with appropriate selection antibiotics in the culture medium. Cells are harvested for testing on the PatchXpress automated patch clamp (Model 7000A, Molecular Devices, Sunnyvale, Calif.) by washing twice with Hank's Balanced Salt Solution, treating the cells with trypsin and re-suspending cells in culture medium (4-6×10^6 cells in 20 mL). Cells in suspension are allowed to recover for 10 minutes in a tissue culture incubator set at 37° C. in a humidified 95% air, 5% CO2 atmosphere.
The following solutions are used for electrophysiological recordings. The external solution contains (mM): 137 NaCl, 4 KCl, 1.8 CaCl2, 1 MgCl2, 10 Glucose, 10 HEPES (pH 7.4 with NaOH). The internal solution contains (mM): 130 Cs Aspartate, 5 MgCl2, 10 EGTA, 4 ATP, 0.5 GTP, 10 HEPES, (pH adjusted to 7.2 with N-methyl-D-glucamine).
Vehicle is applied to naive cells (n≧2, where n=the number cells), for a 5-10 minute exposure interval. Each solution exchange is performed in quadruplicate. At the end of each experiment, a saturating concentration of nifedipine (10 μM) is added to block hCav1.2 current. Leak current is digitally subtracted from the total membrane current record.
Test compound stock solutions are prepared by addition of dimethyl sulfoxide (DMSO) and stored frozen. Each test compound DMSO stock is sonicated (Model 2510/5510, Branson Ultrasonics, Danbury, Conn.), at ambient room temperature for at least 20 minutes to facilitate dissolution. Test compound concentrations are prepared fresh daily by diluting stock solutions into the standard extracellular physiological saline solution (see above). The maximum percent of DMSO added with compound is 0.1%. All test compound and control solutions are placed in a glass-lined 96-well compound plate before loading on PatchXpress.
Two concentrations (1, 10 μM) of each test compound are applied at five (5) minute intervals via disposable polyethylene micropipette tips to naïve cells (n≧2, where n=the number cells/concentration). Each test compound concentration is added to the cell in quadruplicate. […]
Onset and steady state block of hCav1.2 (α1C/β2/α2δ[…] channels is measured using a stimulus voltage pattern consisting of a depolarizing test pulse (duration, 200 ms; amplitude, 10 mV) at 10 s intervals from a −80 mV holding potential. Peak current is measured during a step to 10 mV.

In data set [2] the target is hNav 1.8 sodium channel isoform (Homo sapiens, UniProt Q9Y5Y9). Kind of data set: hNav1.8 sodium channel block. The format is cell-based. An excerpt:
Compounds of this disclosure that block cardiac late INa may also mediate UDB of other Na^+ channel isoforms including the major Na^+ channel isoforms in peripheral nervous system pain fibers, NaV1.7 and 1.8. Compounds of this disclosure that block these channels may also be useful to decrease neuropathic pain.
The inhibition of either hNav 1.7 and hNav 1.8 isoforms or the inhibition of both channels when stimulated at these frequencies support the use of compounds of this disclosure to decrease neuropathic pain.

Data set [3] concerns Female New Zealand rabbits. The data set can be described thus: Ischemia-induced ST segment elevation in anesthetized rabbits. The format is in vivo, rabbit. On the procedure: This study was undertaken to determine the anti-ischemic effects of compounds of the present disclosure in an in vivo rabbit model.
Female New Zealand rabbits (3.0-4.0 kg) were purchased from Western Oregon Rabbitry. Animals were housed on a 12-h light and dark cycle and received standard laboratory chow and water. All experiments were performed in accordance with the Guide for the Care and Use of Laboratory Animals published by The National Research Council and with the experimental protocol approved by the Institutional Animal Care Committee of Gilead Sciences, Inc.
Rabbits were anesthetized with ketamine (35 mg/kg) and xylazine (5 mg/kg) intramuscular injection (im). A tracheotomy was performed and the trachea was intubated with an endotracheal tube. The animal was ventilated with room air supplemented with oxygen using a pressure control animal ventilator (Kent Scientific Corp., Torrington, Conn.) at a respiratory rate of 40 strokes/min and peak inspiration pressure of 10 mmH2O, which was adjusted to keep blood gases and pH within the physiological range (iSTAT clinic analyzer, Heska Corp.; Waukesha, Wis.). The left femoral artery was cannulated for the measurement of blood pressure (BP). Blood samples were also withdrawn from femoral artery. The right external jugular vein was cannulated for drug/vehicle administration. Needle electrodes were inserted subcutaneously into the limbs for recording of the surface electrocardiogram (ECG). The heart was exposed via an incision in the 4th intercostal space (4th and/or 5th ribs were cut for a clear surgical vision). The chest was opened and a pericardial cradle was formed using 4 retractors. A coronary artery occluder, comprised of a snare made of 5 cm PE-10 tubing with a 6-0 Prolene polypropylene suture in it, was placed loosely around the left anterior descending artery (LAD) at its origin. Two unipolar electrodes, made with teflon coated silver wire attached to a small patch of filter paper, were attached on the surface of the ischemic and normal regions of the left ventricle to record epicardial electrocardiogram. Reference electrodes were placed in the open incision of the neck. The body temperature of the animal was monitored via a rectal thermometer and maintained at 37-40° C. by adjusting the surface temperature of the surgical table. Regional ischemia (15 min) was induced by ligating the LAD followed by 15 min of reperfusion caused by releasing the ligation. The heart was excised at the end of the experiment and the LAD was re-ligated. The ischemic area was visualized by perfusing the heart with 1% Evans blue in saline and calculated as a percentage of total ventricular weight. Rabbits with ischemic area less than 10% or larger than 25% were excluded from the analysis. Animals were randomly assigned to vehicle and test compound groups. Test compounds was dissolved in 5% NMP, 30% PG, 45% PEG 400 and 20% de-ionized water (dH2O). Test compound was given as an iv bolus at 0.1, 0.2 and 0.4 mg/kg. After 30 min of dosing, the heart was subjected to 15 min of ischemia followed by 15 min of reperfusion.

Where only a bound is given, the exact number is not on record here.

Usually IC50 stands for the concentration that inhibits the measured activity by half.

Sequence of cardiac L-type Ca2+ channel (hCav1.2) (Q13936 whole entry): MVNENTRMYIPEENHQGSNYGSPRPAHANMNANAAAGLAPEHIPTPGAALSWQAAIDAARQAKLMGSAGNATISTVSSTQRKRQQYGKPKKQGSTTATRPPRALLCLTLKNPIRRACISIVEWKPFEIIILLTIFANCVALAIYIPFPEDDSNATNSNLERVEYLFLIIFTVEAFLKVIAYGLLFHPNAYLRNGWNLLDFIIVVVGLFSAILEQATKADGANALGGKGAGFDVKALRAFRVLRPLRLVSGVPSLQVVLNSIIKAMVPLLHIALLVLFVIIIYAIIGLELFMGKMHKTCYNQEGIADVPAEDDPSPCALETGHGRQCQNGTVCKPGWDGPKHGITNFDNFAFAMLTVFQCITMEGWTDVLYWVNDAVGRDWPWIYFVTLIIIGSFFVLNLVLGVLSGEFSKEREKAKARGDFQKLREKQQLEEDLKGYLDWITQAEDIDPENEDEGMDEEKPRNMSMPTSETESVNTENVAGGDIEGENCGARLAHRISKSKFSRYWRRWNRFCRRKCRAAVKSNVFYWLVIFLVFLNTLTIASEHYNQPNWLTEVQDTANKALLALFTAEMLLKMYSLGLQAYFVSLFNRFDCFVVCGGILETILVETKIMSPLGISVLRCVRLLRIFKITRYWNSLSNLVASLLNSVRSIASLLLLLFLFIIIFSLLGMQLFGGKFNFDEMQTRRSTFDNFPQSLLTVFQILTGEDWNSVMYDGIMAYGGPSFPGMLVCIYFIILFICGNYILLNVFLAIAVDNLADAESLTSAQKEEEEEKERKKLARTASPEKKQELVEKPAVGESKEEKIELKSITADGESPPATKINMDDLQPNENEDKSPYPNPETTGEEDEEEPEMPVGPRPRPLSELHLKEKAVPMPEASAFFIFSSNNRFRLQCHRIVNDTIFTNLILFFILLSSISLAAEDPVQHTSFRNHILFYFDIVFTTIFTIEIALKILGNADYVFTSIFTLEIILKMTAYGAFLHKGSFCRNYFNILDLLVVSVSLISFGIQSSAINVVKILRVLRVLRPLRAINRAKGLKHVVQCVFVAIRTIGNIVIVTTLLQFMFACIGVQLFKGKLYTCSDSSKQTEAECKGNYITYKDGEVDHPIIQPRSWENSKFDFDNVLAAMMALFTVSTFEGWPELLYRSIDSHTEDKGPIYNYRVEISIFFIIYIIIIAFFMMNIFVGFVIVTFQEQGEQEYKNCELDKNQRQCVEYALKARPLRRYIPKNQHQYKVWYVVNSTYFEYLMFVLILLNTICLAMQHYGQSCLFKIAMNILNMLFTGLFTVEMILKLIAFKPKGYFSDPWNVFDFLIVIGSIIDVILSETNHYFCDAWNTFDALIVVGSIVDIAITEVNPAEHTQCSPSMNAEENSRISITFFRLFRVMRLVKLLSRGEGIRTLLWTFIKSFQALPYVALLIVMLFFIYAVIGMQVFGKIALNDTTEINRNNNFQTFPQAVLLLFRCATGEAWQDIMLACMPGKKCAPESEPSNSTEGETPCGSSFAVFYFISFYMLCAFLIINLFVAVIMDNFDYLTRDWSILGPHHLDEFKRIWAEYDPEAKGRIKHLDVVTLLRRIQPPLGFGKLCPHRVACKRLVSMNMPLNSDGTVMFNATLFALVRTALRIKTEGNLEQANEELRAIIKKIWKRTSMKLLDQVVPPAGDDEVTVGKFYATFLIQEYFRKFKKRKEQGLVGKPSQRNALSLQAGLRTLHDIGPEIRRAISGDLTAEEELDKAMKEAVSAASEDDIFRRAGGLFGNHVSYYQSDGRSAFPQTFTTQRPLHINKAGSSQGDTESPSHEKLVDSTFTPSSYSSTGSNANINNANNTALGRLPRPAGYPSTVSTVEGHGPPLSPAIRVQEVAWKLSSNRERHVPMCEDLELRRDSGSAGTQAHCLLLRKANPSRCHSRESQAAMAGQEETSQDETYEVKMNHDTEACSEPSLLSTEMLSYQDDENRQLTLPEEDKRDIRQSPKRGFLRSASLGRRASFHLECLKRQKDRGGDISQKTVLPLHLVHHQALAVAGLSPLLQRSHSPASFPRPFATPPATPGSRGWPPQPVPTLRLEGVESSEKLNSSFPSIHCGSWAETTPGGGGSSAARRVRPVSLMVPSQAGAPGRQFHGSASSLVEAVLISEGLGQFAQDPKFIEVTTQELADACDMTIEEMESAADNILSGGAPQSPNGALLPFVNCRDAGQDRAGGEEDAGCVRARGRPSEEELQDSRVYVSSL
Sequence of cardiac L-type Ca2+ channel (hCav1.2) (Q08289 whole entry partner): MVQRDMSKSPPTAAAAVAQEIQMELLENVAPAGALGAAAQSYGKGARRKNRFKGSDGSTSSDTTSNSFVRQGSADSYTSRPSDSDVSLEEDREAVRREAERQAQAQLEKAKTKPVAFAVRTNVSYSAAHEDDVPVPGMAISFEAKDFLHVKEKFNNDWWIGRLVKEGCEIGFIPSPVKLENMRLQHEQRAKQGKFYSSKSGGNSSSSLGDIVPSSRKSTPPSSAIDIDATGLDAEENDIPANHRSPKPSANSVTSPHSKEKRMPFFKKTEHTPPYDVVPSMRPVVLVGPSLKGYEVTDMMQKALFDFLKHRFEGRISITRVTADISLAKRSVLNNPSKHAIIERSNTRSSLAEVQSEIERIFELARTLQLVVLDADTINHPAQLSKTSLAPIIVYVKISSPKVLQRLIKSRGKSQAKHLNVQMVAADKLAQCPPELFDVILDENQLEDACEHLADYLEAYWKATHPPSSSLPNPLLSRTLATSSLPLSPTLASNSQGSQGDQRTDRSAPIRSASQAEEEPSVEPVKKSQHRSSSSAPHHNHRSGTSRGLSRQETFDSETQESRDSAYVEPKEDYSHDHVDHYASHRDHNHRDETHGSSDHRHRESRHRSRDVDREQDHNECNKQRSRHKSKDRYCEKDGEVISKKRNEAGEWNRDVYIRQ
Sequence of cardiac L-type Ca2+ channel (hCav1.2) (P54289 25-956 partner limits assumed): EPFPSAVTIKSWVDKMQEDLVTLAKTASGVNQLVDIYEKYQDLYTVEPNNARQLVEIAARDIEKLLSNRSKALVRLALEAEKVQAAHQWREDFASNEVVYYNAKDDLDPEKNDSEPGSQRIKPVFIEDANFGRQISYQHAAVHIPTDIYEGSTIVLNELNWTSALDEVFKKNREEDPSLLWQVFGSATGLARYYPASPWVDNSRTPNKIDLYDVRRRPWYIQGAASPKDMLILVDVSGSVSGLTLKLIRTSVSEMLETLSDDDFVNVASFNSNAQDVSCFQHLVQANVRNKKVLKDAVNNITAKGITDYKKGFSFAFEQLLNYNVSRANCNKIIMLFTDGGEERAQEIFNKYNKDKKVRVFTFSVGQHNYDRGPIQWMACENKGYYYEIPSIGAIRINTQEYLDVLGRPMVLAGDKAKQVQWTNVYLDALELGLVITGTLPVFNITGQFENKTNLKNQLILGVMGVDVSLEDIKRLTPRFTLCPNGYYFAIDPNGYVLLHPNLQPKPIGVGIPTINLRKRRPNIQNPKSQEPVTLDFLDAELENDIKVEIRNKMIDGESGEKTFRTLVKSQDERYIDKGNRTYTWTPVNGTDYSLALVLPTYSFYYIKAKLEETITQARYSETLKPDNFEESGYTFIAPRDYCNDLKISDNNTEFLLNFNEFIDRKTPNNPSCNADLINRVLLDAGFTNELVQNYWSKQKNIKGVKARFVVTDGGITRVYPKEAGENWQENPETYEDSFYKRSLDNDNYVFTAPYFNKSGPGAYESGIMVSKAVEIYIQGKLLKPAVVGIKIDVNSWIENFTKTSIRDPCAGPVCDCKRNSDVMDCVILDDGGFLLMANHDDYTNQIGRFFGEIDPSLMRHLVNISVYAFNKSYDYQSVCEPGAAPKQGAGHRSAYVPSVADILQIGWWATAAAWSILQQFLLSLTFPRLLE
Sequence of cardiac L-type Ca2+ channel (hCav1.2) (P54289 957-1103 partner limits assumed): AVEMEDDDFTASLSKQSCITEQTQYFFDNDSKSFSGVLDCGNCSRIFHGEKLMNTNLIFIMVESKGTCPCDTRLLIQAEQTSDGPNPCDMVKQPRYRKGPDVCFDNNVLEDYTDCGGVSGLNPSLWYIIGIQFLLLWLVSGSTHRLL

On to `O=C1c2cc(-c3ccc(OC(F)(F)F)cc3)ccc2OCCN1Cc1ncccn1` [II-73, 4-(pyrimidin-2-ylmethyl)-7-(4-(trifluoromethoxy)phenyl)-3,4-dihydrobenzo[f][1,4]oxazepin-5(2H)-one], for which the figures for the “blocked the hCav1.2 late current” value in data set [1] (1 μM concentration) and in data set [1] (10 μM concentration) were 14% and 47%, respectively. Further, the “blocked the hCav1.2 peak current” value in data set [1] (1 μM concentration) came out at 32%; in data set [1] (10 μM concentration), 79%. The results for the IC50 in data set [2] (10 Hz frequency) and in data set [2] (frequency of 25 Hz) were more than 10 µM and 1.5 µM, respectively. For the same molecule, the “area under curve (AUC) for the ST segment height reduced (vs. control)” value in data set [3] (0.5 μM plasma concentration, iv bolus, 15 min ischemia) stood at 93%. Besides, the “effect on blood pressure (BP), heart rate (HR) and ECG intervals prior to the ischemia” value in data set [3] (at the plasma concentration levels studied) is “no significant effect”. In addition, the “ischemia-induced ST elevation” value in data set [3] (iv bolus 30 min before 15 min ischemia) is reported as “dose-dependently prevented”.

The values above are taken from patent US9676760B2, “Fused heterocyclic compounds as ion channel modulators” (Gilead Sciences, Inc., priority 2011, dated 2017).
